Values of other authors, collected in PMC8796384, “Plasma protein binding prediction focusing on residue-level features and circularity of cyclic peptides by deep learning” (Bioinformatics, 2021).
Read-outs that look alike come from different tables or passages of the source.

Experiments:
plasma proteins [1] = system: plasma proteins
Description: The external test (DrugBank) data contained some structurally similar pairs.

plasma proteins [2] = conditions: whole-peptide descriptor model trained on small molecules; ref Tajimi et al. (2018)
[3] = experimental %PPB, below 50% rounded to 50%, above 95% rounded to 95%, DrugBank dataset collected by Tajimi et al. (2018), ref Wishart et al., 2018

Row | Substance | %PPB50-95 (plasma proteins [1]; [3]) [%] | other results
1 | Micafungin | 95 | 
2 | Polymyxin B |  | %PPB50-95 (plasma proteins [1]): 85.5%
3 | Caspofungin | 95 | 
4 | daptomycin |  | predicted %PPB value by Tajimi (plasma proteins [2]): 49%
5 | Pasireotide |  | %PPB50-95 (plasma proteins [1]): 88%
6 | Anidulafungin | 84 | 
7 | Lanreotide | 81 | 
